Tests used:
PI3Kβ (p110β/p85α) = PI3Kβ (p110β/p85α) (Homo sapiens, UniProt P42338); experiment: ADP-Glo Kinase Assay, inhibition of PI3Kβ
PI3Kδ (p110δ/p85α) = PI3Kδ (p110δ/p85α) (Homo sapiens, UniProt O00329); experiment: ADP-Glo Kinase Assay, inhibition of PI3Kδ
PI3Kα (p110α/p85α) = PI3Kα (p110α/p85α) (Homo sapiens, UniProt P42336); experiment: ADP-Glo Kinase Assay, inhibition of PI3Kα
PI3Kγ (p120γ) = PI3Kγ (p120γ) (Homo sapiens, UniProt P48736); experiment: ADP-Glo Kinase Assay, inhibition of PI3Kγ
Sequence of PI3Kγ (p120γ) (P48736 whole entry): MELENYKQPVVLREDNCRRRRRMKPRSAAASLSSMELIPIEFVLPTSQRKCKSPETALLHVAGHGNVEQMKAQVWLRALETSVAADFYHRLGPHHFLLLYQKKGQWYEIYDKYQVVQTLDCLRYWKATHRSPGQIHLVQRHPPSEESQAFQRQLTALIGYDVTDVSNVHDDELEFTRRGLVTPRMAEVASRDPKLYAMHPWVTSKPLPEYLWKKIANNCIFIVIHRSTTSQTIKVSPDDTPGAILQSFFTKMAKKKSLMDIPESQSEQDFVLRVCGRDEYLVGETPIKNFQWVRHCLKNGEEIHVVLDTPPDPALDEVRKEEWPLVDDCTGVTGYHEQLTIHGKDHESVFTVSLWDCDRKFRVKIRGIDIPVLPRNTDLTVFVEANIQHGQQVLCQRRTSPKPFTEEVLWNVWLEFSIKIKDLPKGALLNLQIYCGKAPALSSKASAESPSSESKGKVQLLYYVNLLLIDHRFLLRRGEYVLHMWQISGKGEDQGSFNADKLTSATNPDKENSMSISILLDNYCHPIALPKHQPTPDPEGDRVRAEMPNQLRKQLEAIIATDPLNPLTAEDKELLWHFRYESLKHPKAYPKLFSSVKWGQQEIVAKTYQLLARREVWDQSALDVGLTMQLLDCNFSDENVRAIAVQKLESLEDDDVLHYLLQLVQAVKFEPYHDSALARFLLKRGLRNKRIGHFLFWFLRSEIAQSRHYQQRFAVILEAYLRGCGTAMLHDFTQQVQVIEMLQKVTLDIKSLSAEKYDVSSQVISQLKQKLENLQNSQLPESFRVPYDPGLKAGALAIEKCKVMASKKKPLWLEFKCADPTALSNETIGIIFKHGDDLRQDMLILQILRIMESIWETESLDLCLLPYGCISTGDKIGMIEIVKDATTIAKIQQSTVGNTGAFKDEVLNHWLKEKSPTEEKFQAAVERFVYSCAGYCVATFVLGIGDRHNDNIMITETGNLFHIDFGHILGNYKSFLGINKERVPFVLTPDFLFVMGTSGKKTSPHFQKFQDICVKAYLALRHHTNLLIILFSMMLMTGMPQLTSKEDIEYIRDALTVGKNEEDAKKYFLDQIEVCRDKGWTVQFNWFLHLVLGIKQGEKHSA

[1] = retrieved from database; ref TCMSP database [18]; cited from earlier work
[2] = design: method as in TCMSP database [18]; conditions: retrieved from database; ref TCMSP database [18]; in h (unit assumed); cited from earlier work

Sequence of PI3Kβ (p110β/p85α) (P42338 whole entry): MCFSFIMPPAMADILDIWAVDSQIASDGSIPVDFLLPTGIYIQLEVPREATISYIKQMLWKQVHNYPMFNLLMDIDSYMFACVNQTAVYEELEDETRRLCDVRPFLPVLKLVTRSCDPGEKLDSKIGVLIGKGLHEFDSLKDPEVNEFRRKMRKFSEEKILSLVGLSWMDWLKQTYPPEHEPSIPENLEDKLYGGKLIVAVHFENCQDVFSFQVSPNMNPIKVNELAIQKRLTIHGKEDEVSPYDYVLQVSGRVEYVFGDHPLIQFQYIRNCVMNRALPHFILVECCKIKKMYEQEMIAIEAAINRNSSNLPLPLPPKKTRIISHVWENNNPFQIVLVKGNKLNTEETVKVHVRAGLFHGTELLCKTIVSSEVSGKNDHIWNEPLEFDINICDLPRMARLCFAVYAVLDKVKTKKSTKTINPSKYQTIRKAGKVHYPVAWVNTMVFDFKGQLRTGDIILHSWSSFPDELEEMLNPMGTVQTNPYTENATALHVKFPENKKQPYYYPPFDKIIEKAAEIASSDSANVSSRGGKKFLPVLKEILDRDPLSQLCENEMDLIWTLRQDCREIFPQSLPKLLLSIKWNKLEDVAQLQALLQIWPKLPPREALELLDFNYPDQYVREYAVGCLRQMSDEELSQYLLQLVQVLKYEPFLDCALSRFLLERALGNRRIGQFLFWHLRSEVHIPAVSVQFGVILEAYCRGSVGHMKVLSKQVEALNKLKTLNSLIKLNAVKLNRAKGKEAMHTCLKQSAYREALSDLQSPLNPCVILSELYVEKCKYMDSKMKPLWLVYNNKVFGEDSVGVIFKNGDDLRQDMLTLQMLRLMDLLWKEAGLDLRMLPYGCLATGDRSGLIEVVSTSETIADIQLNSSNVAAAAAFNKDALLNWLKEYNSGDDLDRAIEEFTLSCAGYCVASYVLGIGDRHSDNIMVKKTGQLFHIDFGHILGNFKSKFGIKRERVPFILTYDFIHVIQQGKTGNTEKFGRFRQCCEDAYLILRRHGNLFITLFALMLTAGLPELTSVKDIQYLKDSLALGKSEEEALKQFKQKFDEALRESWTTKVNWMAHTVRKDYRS
Sequence of PI3Kβ (p110β/p85α) (P27986 whole entry partner): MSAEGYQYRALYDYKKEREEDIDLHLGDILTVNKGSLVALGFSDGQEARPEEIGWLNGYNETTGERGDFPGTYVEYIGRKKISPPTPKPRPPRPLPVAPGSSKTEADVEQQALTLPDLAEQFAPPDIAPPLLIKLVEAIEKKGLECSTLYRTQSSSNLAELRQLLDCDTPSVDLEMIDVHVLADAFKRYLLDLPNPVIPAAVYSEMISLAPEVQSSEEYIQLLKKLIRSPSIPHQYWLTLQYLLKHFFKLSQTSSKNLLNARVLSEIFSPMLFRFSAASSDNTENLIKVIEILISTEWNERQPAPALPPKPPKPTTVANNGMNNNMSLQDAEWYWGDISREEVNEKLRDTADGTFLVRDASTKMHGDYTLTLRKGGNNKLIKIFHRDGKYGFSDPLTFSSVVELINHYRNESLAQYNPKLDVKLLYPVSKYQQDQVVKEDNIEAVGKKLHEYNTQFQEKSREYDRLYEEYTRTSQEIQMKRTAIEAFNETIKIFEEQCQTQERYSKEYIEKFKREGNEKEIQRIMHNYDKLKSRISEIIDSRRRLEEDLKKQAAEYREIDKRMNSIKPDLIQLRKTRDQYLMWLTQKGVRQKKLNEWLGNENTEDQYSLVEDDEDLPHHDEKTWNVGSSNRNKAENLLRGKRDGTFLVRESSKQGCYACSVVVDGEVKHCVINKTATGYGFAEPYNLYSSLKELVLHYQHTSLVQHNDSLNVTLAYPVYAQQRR
Sequence of PI3Kδ (p110δ/p85α) (O00329 whole entry): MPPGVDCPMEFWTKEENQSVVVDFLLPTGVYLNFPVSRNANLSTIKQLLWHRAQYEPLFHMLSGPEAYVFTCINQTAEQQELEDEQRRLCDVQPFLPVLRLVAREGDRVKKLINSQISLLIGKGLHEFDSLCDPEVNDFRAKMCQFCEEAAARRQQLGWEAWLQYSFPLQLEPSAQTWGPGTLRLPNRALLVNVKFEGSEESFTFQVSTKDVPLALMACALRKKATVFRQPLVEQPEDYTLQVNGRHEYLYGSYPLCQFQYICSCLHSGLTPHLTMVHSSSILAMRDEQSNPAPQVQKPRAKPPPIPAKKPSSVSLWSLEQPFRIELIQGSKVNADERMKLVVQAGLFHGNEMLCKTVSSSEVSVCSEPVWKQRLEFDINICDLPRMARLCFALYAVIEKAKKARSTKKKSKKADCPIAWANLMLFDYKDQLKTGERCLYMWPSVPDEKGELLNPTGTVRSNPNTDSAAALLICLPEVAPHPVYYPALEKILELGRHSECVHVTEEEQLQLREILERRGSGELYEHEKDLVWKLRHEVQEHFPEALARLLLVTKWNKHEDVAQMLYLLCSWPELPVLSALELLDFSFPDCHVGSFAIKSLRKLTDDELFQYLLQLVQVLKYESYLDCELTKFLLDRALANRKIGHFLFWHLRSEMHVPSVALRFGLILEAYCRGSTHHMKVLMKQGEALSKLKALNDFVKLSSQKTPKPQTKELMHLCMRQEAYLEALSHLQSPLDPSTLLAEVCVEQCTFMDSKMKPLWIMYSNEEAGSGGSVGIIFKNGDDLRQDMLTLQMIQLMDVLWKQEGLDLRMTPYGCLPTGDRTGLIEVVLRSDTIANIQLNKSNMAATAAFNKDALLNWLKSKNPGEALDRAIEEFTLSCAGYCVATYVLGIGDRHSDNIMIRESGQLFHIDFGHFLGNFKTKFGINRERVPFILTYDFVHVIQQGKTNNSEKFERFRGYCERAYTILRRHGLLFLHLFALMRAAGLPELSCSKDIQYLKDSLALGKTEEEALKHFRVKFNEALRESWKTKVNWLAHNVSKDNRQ
Sequence of PI3Kδ (p110δ/p85α) (P27986 whole entry partner): as the sequence (P27986 whole entry partner) above
Sequence of PI3Kα (p110α/p85α) (P42336 whole entry): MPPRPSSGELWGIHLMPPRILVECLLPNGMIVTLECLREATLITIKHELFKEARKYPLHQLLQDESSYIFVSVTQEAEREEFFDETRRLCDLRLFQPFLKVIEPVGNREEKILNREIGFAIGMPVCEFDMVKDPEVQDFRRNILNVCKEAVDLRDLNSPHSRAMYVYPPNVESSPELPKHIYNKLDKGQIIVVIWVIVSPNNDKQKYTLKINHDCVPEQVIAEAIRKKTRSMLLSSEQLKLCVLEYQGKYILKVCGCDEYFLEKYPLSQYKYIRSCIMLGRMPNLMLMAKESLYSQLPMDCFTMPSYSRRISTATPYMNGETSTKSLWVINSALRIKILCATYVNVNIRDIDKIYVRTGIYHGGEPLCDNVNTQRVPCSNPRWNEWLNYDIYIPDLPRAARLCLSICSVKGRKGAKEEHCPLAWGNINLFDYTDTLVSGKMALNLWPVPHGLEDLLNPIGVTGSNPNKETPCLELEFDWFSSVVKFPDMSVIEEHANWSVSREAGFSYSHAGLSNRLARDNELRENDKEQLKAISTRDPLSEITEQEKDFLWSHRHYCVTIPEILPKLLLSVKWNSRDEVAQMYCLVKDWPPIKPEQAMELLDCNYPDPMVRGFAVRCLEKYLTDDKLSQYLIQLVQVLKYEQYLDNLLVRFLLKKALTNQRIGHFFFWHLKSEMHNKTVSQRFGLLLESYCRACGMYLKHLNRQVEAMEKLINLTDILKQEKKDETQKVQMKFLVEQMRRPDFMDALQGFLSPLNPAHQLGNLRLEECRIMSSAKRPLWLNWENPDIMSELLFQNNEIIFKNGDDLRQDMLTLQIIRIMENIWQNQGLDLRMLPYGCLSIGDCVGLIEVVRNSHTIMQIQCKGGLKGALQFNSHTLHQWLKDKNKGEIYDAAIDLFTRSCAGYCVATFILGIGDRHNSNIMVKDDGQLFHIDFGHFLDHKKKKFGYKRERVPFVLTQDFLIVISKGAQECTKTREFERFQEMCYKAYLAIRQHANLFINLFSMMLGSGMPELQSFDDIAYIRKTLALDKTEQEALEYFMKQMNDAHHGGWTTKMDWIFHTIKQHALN
Sequence of PI3Kα (p110α/p85α) (P27986 whole entry partner): as the sequence (P27986 whole entry partner) above

IC50 (PI3Kβ (p110β/p85α)) [µM] | IC50 (PI3Kδ (p110δ/p85α)) [µM] | IC50 (PI3Kα (p110α/p85α)) [µM] | IC50 (PI3Kγ (p120γ)) [µM] | Compound | OB (oral bioavailability) [1] [%] | HL (drug half-life) [2]
> 40 | > 40 | > 40 | 13.8 ± 1.31 | CC(C)=CCC/C(C)=C/COc1ccc2ccc(=O)oc2c1 [AUR, auraptene] | 25.62 | –
> 40 | > 40 | > 40 | > 40 | COc1ccc([C@@H]2CC(=O)c3c(O)cc(O)cc3O2)cc1O [HES, hesperetin] | 70.31 | 15.78
> 40 | > 40 | > 40 | 17.7 ± 1.16 | COc1ccc(-c2cc(=O)c3c(OC)c(OC)c(OC)c(OC)c3o2)cc1 [TAN, tangeretin] | 21.38 | –

Further lines, the molecule ahead of its results:

Compound | IC50 (PI3Kβ (p110β/p85α)) [µM] | IC50 (PI3Kδ (p110δ/p85α)) [µM] | IC50 (PI3Kα (p110α/p85α)) [µM] | IC50 (PI3Kγ (p120γ)) [µM] | OB (oral bioavailability) [1] [%] | HL (drug half-life) [2]
O=c1cc(-c2ccc(O)c(O)c2)oc2cc(O)cc(O)c12 [LUT, luteolin] | 2.95 ± 0.19 | 1.55 ± 0.15 | 2.49 ± 0.34 | 5.79 ± 0.1 | 36.16 | 15.94
O=C1C[C@@H](c2ccc(O)cc2)Oc2cc(O)cc(O)c21 [NAR, naringenin] | > 40 | > 40 | > 40 | > 40 | 59.29 | –
COc1ccc(-c2cc(=O)c3c(OC)c(OC)c(OC)c(OC)c3o2)cc1OC [NOB, nobiletin] | – | – | – | – | 61.67 | 16.20

— PMC9300271, “Identifying Active Compounds and Mechanisms of Citrus changshan-Huyou Y. B. Chang against URTIs-Associated Inflammation by Network Pharmacology in Combination with Molecular Docking” (Evidence-based Complementary and Alternative Medicine : eCAM, 2022)
